According to publication PMC3612106, “Metabolism of BYZX in Human Liver Microsomes and Cytosol: Identification of the Metabolites and Metabolic Pathways of BYZX” (PLoS ONE, 2013):
Where two headings read alike, the source gives them in different places.

Experiments:
[1] = tested on: formation of M2 from BYZX in HLMs; assay: Inhibition of BYZX hydrogenation in HLMs; format: in vitro ADME, human; details: 20 µM BYZX
Description: (§1) Some reductase inhibitors and substrate were used to inhibit the hydrogenate reaction of BYZX. 20 µM BYZX was incubated with 100 µM dicoumarol in human liver cytosol and was incubated with 100 µM benzylideneacetone and with 20 µM finasteride in HLMs, respectively.

CYP3A4 [2] = target: T1, CYP3A4 (Homo sapiens, UniProt P08684); assay: Incubation and kinetics with recombinant human CYP3A4; format: in vitro ADME; parameters: purchased BD Gentest (Woburn, MA); host or cells: baculovirus-insect cells; details: for K m of N-des-ethylation: recombinant CYP3A4 0.04 mg/mL, BYZX fitted to allosteric sigmoidal kinetics
Description: (§2) Commercial baculovirus-insect cell-expressed human CYPs (0.1 mg/mL) including CYP1A2, 2A6, 2B6, 2C8, 2C9, 2C19, 2D6, 2E1 and 3A4 were incubated with 20 µM BYZX and 3 µM M2 in the aforementioned method respectively. After 40 min 1 volume of ice cold methanol was added to terminate the reaction. The mixture was vortexed for 1 min and centrifuged at 13 000 rpm for 15 min. 7 µL of the supernatant was injected into the LC-MS system for analysis.
(§3) The kinetics studies were performed using human liver cytosol, HLMs, and recombinant human CYP3A4 and CYP2C8. Before the kinetic study, the incubation time and the enzyme concentration for linear formation of metabolites were optimized. The concentrations of cytosol, HLMs, CYP3A4 and CYP2C8 protein were 0.4, 0.4, 0.04 and 0.1 mg/mL, respectively. The incubation times of HLMs, CYP3A4 and CYP2C8 were […], respectively. […] The following equation was applied, assuming a Michaelis–Menten equation: V = V max× [S]/(K m+[S]), where V is the rate of reaction, V max is the maximum velocity, K m is the Michaelis constant (substrate concentration at half of V max), and [S] is the substrate concentration. Eadie-Hofstee plot was used to confirm allosteric kinetics.
Target sequence in this assay (P08684 whole entry): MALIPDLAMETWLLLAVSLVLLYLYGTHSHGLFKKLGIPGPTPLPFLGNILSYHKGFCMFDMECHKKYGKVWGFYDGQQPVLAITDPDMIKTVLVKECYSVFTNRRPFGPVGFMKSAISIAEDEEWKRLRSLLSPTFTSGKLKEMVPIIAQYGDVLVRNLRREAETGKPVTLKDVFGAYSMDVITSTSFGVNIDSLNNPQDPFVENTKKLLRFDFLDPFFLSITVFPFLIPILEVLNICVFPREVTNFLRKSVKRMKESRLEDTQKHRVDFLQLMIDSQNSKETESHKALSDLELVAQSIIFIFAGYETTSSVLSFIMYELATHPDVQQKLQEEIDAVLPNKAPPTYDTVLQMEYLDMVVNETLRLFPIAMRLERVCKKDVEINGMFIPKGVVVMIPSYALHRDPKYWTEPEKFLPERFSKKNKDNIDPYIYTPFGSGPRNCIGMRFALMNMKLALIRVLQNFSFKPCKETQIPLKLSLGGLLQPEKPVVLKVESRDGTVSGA

[3] = Metabolism and kinetics in human liver cytosol; format: in vitro ADME
Description: (§4) Moreover, very small amount of M3 was isolated from pooled incubation samples by HPLC-UV on an ODS column with a gradient solvent system consisting of methanol and 10 mM ammonium formate in water. Then, M3 were incubated in pooled HLMs, recombinant CYPs, and human cytosol to confirm the further metabolism.
as §3
Estimation of the kinetics for BYZX hydrogenation in human liver cytosol was similar to what described above. BYZX in a series of concentration (5.0, 10.0, 20.0, 40.0, 100.0, 150.0, 200.0 µM) were incubated with 0.2 mg/mL of cytosol protein for 20 min at 37°C, and the different formation rates of M2 were assayed for estimating the kinetic parameters.

[4] = Metabolism and kinetics in pooled HLMs; format: in vitro ADME, human; details: for K m of N-des-ethylation: HLMs 0.4 mg/mL; for microsomal CLint: pooled human liver microsomes
Description: BYZX (20 µM) was incubated in a 200 µL of reaction buffer solution containing 0.1 M Tris-HCl (pH 7.4), 0.15 M MgCl2, NADPH-generating system (9.7 mM dl-isocitrate trisodium and 0.07 unit of isocitrate dehydrogenase), and 1 mg/mL pooled HLMs. The incubation mixture was preincubated at 37°C for 5 min, and then the reaction was initiated by adding 4 µL of NADP/NADPH solution (0.026 M NADP and 0.012 M NADPH in 1% NaHCO3 solution). After incubation at 37°C for 120 min, 200 µL of cold methanol was added to terminate the reaction and precipitate the protein. The mixture was vortexed for 1 min and centrifuged at 13 000 rpm for 15 min. 7 µL of the supernatant was injected into the LC system.
as §4, §3

[5] = target: T2, NADPH-CYP450 oxidoreductase (OR) and cytochrome b5 (cyt b5) (Homo sapiens, UniProt P00167+P16435); assay: Incubation with recombinant OR and cyt b5 (Sf9 expression); format: in vitro ADME
T2 construct: made in house; host or cells: Sf9 insect cells
Description: In order to determine whether OR and cyt b5 are the reductases of BYZX, OR and cyt b5 were expressed individually and together in our previous method using insect cell expression system, Sf9 cell line, [14]. The incubation method was similar to what described above. The production of M2 was determined.

CYP2C8 = target: T3, CYP2C8 (Homo sapiens, UniProt P10632); assay: Incubation and kinetics with recombinant human CYP2C8; format: in vitro ADME; details: for K m of N-des-ethylation: recombinant CYP2C8 0.1 mg/mL
T3 construct: purchased BD Gentest (Woburn, MA); host or cells: baculovirus-insect cells
T3 sequence (P10632 1-490): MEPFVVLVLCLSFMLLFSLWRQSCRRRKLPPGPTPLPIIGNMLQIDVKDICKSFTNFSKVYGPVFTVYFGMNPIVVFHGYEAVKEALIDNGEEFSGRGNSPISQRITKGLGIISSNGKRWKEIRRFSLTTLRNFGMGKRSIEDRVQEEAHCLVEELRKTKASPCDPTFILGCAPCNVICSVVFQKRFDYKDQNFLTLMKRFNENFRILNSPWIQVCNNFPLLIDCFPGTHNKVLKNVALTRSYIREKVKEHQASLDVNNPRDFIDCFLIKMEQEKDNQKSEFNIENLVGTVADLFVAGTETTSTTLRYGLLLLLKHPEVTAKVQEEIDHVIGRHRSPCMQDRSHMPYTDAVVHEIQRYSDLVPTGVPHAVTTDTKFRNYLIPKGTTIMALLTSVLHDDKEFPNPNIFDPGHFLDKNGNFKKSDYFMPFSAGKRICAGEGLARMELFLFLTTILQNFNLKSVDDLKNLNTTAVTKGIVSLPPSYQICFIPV
Description: as §2, §3

PC12 cells = details: cited from earlier work
[6] = tested on: chemical-induced learning and memory impairments; details: rodents; cited from earlier work
[7] = tested on: formation of M2 from BYZX in human liver cytosol; assay: in vitro; format: in vitro ADME; details: 100 µM inhibitor, 20 µM BYZX, human liver cytosol (Fig. 6B)
Description: as §1

[8] = tested on: reductase-mediated hydrogenation of BYZX (formation of M2); assay: in vitro; format: in vitro ADME, human; details: human
Description: as §1

pooled HLMs = assay: Initial estimation of metabolism enzymes in pooled HLMs; format: in vitro ADME, human; details: 5 mM ABT preincubated 30 min, 0.4 mg/mL pooled HLMs, 20 µM BYZX
Description: Initial estimation of the main metabolic pathway in HLMs was performed using specific inhibitors, or by altering experimental conditions, to identify CYP and non-CYP metabolic pathway. Three groups of incubation of BYZX with pooled HLMs under different additive processes were carried out in parallel to identify whether the metabolites produced were mediated by CYPs or not. In Group I, the incubation mixture including 0.4 mg/mL pooled HLMs protein, 4 µL of NADP/NADPH solution (0.026 M NADP and 0.012 M NADPH in 1% NaHCO3 solution) and 5 mM 1-aminobenzotriazole (ABT, 1 M dissolved in dimethyl sulfoxide, DMSO) were preincubated at 37°C for 30 min, and then 20 µM BYZX was added into the incubation system (n = 2). In Group II, the incubation mixture including 0.4 mg/mL pooled HLMs protein were preincubated at 45°C for 10 min to abolish the activities of the flavin-containing monooxygenases (FMOs), and then 20 µM BYZX was added and precincubated at 37°C for 5 min, and then 4 µL of NADP/NADPH solution was added to initiate the reaction (n = 2). In Group III, the incubation mixture including 0.4 mg/mL pooled HLMs protein and 20 µM BYZX were preincubated at 37°C for 5 min, and then 4 µL of NADP/NADPH solution or […] NaHCO3 solution were added to initiate the reaction (n = 2). […]

CYP3A4 [9] = target: T1, CYP3A4; assay: in vitro; details: pooled human liver microsomes, probe M2 20 µM (formation of M1)
Target sequence in this assay (P08684 2-503): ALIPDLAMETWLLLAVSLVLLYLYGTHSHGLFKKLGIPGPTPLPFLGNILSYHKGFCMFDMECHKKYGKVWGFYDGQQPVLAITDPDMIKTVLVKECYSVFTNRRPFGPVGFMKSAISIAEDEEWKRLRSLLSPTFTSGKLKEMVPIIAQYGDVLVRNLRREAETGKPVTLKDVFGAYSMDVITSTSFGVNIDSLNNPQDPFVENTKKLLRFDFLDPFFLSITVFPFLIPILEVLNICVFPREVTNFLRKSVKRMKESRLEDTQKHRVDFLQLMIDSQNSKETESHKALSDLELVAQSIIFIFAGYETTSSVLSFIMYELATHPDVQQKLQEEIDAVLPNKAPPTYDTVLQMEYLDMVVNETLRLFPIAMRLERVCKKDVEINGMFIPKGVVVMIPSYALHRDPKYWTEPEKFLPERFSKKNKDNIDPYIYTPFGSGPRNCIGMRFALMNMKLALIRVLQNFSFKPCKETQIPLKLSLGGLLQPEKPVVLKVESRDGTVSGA

CC(C)(C)NC(=O)[C@H]1CC[C@H]2[C@@H]3CC[C@H]4NC(=O)C=C[C@]4(C)[C@H]3CC[C@]12C [finasteride]
Effect on hydrogenation of BYZX (formation of M2) ([1]; 20 µM finasteride): no inhibitory effect

CCN(CC)Cc1ccc(/C=C2\Cc3cc(OC)c(OC)cc3C2=O)cc1 [BYZX, (E)-2-(4-((diethylamino)methyl)benzylidene)-5,6-dimethoxy-2,3-dihydroinden-one]
Cl int of N-des-ethylation (M3 formation) (CYP3A4 [2]; recombinant CYP3A4): 6.76 A.U.
V max of N-des-ethylation (M3 formation) (CYP3A4 [2]; recombinant CYP3A4): 3.3±0.4 A.U.
K m of N-des-ethylation (CYP3A4 [2]): 488.2 ± 160.2 µM
K m of hydrogenation in cytosol relative to HLMs ([3]; cytosol vs HLMs): about 2 times
Rate of hydrogenation (V max) in human liver cytosol relative to HLMs ([3]; cytosol vs HLMs): about 15 times
K m of hydrogenation (M2 formation) ([3]; human liver cytosol): 38.9 ± 2.5 µM
V max of hydrogenation (M2 formation) ([3]; human liver cytosol): 3.56±0.07 nmol/min/mg protein
K m of hydrogenation (M2 formation) ([4]; HLMs): 21.4 ± 1.4 µM
V max of hydrogenation (M2 formation) ([4]; HLMs): 0.252±0.008 nmol/min/mg protein
K m of N-des-ethylation [4]: 46.4 ± 5.9 µM
Cl int of N-des-ethylation (M3 formation) ([4]; human, microsomes): 2.39 A.U.
V max of N-des-ethylation (M3 formation) ([4]; human, pH 7.4): 0.111±0.008 A.U.
microsomal CLint ([4]; human, pH 7.4, HLMs, read-out: Cl int of hydrogenation (M2 formation)): 11.8 µL/min/mg
Metabolism into M2 in S9 fraction of blank Sf9 cells ([5]; blank Sf9 cells S9): rapidly metabolized into M2
Rate of formation of M2 in mixture of recombinant OR and cyt b5 ([5]; compared with blank Sf9 S9): significantly decreased
Cl int of N-des-ethylation (M3 formation) (CYP2C8; recombinant CYP2C8): 1.59 A.U.
V max of N-des-ethylation (M3 formation) (CYP2C8; recombinant CYP2C8): 0.099±0.005 A.U.
K m of N-des-ethylation (CYP2C8): 62.1 ± 8.2 µM
Effect on apoptosis induced by hydrogen peroxide (PC12 cells): protect
Effect on chemical-induced learning and memory impairments [6]: significantly improve

CC(=O)C=Cc1ccccc1 [benzylideneacetone]
Effect on hydrogenation of BYZX (formation of M2) [7]: significantly suppressed

O=c1oc2ccccc2c(O)c1Cc1c(O)c2ccccc2oc1=O [dicoumarol]
Effect on hydrogenation of BYZX (formation of M2) [7]: dramatic inhibitory effect
IC50 at 20 min [8]: 1.6 ± 1.3 µM
IC50 ([1]; 0.2 mg/mL protein, 20 min): 7.7 ± 1.2 µM

Nn1nnc2ccccc21 [ABT, 1-aminobenzotriazole]
Effect on formation of desethyl metabolite M3 from BYZX (pooled HLMs): extensively suppressed
Effect on hydrogenation of BYZX to M2 (pooled HLMs): not significantly inhibited

CCNCc1ccc(/C=C2\Cc3cc(OC)c(OC)cc3C2=O)cc1 [M3]
Further metabolism of M3 ([4]; human): could be further biotransformed into M1

CCN(CC)Cc1ccc(CC2Cc3cc(OC)c(OC)cc3C2=O)cc1 (stereo not shown) [M2]
microsomal CLint (CYP3A4 [2]; human, recombinant human CYP3A4 (baculovirus-insect cell-expressed), recombinant CYP3A4, read-out: Cl int of N-des-ethylation (M1 formation)): 6.01 µL/min/mg
V max of N-des-ethylation (M1 formation) (CYP3A4 [2]; recombinant CYP3A4): 0.392±0.016 nmol/min/mg protein
K m of N-des-ethylation (CYP3A4 [2]): 65.2 ± 7.2 µM
Cl int of CYP3A4 compared with that of CYP2C8 (M1 formation) (CYP3A4 [2]; recombinant CYP3A4 vs CYP2C8): over 2 folds
V max of N-des-ethylation (M1 formation) ([4]; HLMs): 0.209±0.010 nmol/min/mg protein
K m of N-des-ethylation [4]: 105.7 ± 10.9 µM
microsomal CLint ([4]; human, pH 7.4, HLMs, read-out: Cl int of N-des-ethylation (M1 formation)): 1.98 µL/min/mg
microsomal CLint (CYP2C8; human, recombinant human CYP2C8 (baculovirus-insect cell-expressed), recombinant CYP2C8, read-out: Cl int of N-des-ethylation (M1 formation)): 2.58 µL/min/mg
V max of N-des-ethylation (M1 formation) (CYP2C8; recombinant CYP2C8): 0.370±0.024 nmol/min/mg protein
K m of N-des-ethylation (CYP2C8): 143.2 ± 17.7 µM

COc1ccc2c(c1)c(CC(=O)O)c(C)n2C(=O)c1ccc(Cl)cc1 [indomethacin]
IC50 at 20 min [8]: 18.8 ± 1 µM

CC(=O)N1CCN(c2ccc(OCC3COC(Cn4ccnc4)(c4ccc(Cl)cc4Cl)O3)cc2)CC1 (stereo not shown) [ketoconazole]
IC50 (CYP3A4 [9]): 9.8 ± 1.2 µM
